Assay results reported in patent publication US20040014721A1, “Method for using tethered bis(polyhydroxyphenyls) and O-alkyl derivatives thereof in treating inflammatory conditions of the central nervous system” (Oklahoma Medical Research Foundation, priority 2002, published 2004).
Like-named read-outs stand apart in the source and are kept apart here.

Assays:
[1] = test system: TNFα-Stimulated NO2^− Production in EOC-20 Cells; assay: TNFα-stimulated nitrite (NO2−) production in EOC-20 microglial cells, Griess assay; type: cell-based, mouse
Experimental: Cells were cultured in 24 well plates until confluent then treated with test agent, which was dissolved at 100× final concentration in dimethylsulfoxide (DMSO), or with vehicle only. Thirty minutes after treatment with test agent, cells were treated with 10 ng/mL recombinant mouse TNFα (Pharmingen, San Diego, Calif. USA). […] Each compound was tested at 100 μM, 20 μM, 4 μM, 0.8 μM and 0 μM in the presence of TNFα. Four wells of cells were used for each concentration of test agent.
(§1) Lower IC50 values indicate improved efficacy. FIG. 2 illustrates the principle of the measurement using NDGA as an example test agent. In order to determine viability, cell culture medium was replaced with phenol-free DMEM (Gibco) containing 20 μL/mL of MTT viability reagent (Promega). […] Control cells were taken to indicate 100% viability and intermediate values of MTT reduction were scaled to percentage of control. For each compound, an LD50 value was determined by extrapolation through sublethal concentrations. This value represents the concentration that reduced the MTT viability parameter by 50%.

EOC-20 cells = test system: EOC-20 cells
Experimental: as §1

G93A-SOD1 mice [2] = assay: G93A-SOD1 mouse ALS model, NDGA i.p.: rotorod and survival; type: in vivo
Experimental: More subtle defects in motor performance are measured using a rotorod device. The animals are placed on a horizontal rod set to spin about its long axis, initially at 1 rpm. The revolution rate is increased at a constant rate of 1 rpm every 10 sec and the experiment continues until the animal falls off the rod. In contrast to mice bearing mutant SOD1 transgenes, animals bearing the wild-type human SOD1 transgenes display healthy motor function.
The G93A-SOD1 mice were used to test for in vivo efficacy of a benchmark tethered bis(polyhydroxyphenyl) compound, nordihydroguaiaretic acid (NDGA). In one experiment, 10 G93A-SOD1 animals were trained to the rotorod task at 85 days of age. At 90 days of age, animals were divided into two groups of 5 animals each. One group was injected intraperitoneally with NDGA (10 mg/kg, 5 days/week, in 95% saline/5% DMSO vehicle). The control group received vehicle only. Animals were tested on the rotorod device every 5 days subsequently.
Initially, rotorod performance characteristics improve in all mice as the animals become acquainted with the apparatus. At 100 days animals obtain peak performance (FIG. 3A). At timepoints subsequent to 100 day, animals decline in motor performance. In order to control for differences in initial strength amongst the 10 animals, all data subsequent to the 100 day timepoint was expressed as a percentage relative to the peak performance at 100 day (FIGS. 3B and 3C). […] When the data in FIG. 3B were assessed using repeated measures analysis of variance (ANOVA), a significant age X treatment effect was observed (p<0.005). At the 120D timepoint, the statistical assessment by Student's t-test indicates p<0.08 between drug and vehicle groups (i.e. 92% probability of a protective drug effect).
The potency of NDGA in vitro inspired further study in vivo. Two separate studies were performed. In the first experiment, 10 G93A-SOD1 mice were randomized into groups receiving 10 mg/kg NDGA i.p. or vehicle alone, beginning at 90 D of age. […] Rotarod performance tests were conducted at 5 D intervals. […] The median lifespan of the five NDGA-treated animals was 127 D, as compared to 121 D for the control group, representing a 20% extension of lifespan after the start of treatment.
In a separate experiment, NDGA was administered intraperitoneally to a small group of G93A-SOD1 mice (5 control and 5 drug-treated animals; 10 mg/kg 5 days/week beginning at 90 D). In this paradigm, NDGA also extended survival although logrank statistics were not formally significant (median lifespan after start of treatment=31 D in control animals and 37 D in NDGA-treated animals; p=0.074 by logrank test). […] The i.p. administration of NDGA was somewhat affected by the inclusion of DMSO in vehicle; G93A-SOD1 mice receiving DMSO alone died approximately 10 D sooner than normally would be expected from these animals. Taken together, the data strongly indicate a positive effect of NDGA on the prognosis of disease in rapidly-progressing G93A-SOD1 mice.

G93A-SOD1 mice [3] = test system: G93A-SOD1 mice
Experimental: NDGA was formulated into AIN93G laboratory mouse chow at 2500 ppm (approximately […] intake/mouse/day). […] G93A-SOD1 mice and nontransgenic littermates were fed this NDGA-containing diet, or a control diet, beginning at 90 D of age. An observer blinded to the treatment groups tested the animals on the rotarod task at 100 D and every 5 days thereafter. […] This is a very important point, as most forms of human ALS are sporadic and prophylactic treatment is not practical.

C57/B6 mice = assay: 3-nitropropionic acid (3NP) striatal damage model, rotarod and balance beam; type: in vivo; details: 2500 ppm in diet for one month, then 3NP 50 mg/kg i.p. every 12 h for 5 days
Experimental: Mice were then injected with 50 mg/kg 3NP intraperitoneally, every 12 h for 5 days. Motor performance was assessed daily by a rotarod task and balance was assessed by a balance wire task. In the rotarod task (Hensley et al. 2002), animals were placed on a bar rotating at 1 rpm and accelerating 10 rpm/minute until the animal fell from the bar. In the balance beam test, mice were placed on a 2-cm balance beam by suspending them by the tail, orienting them perpendicular to the beam, and placing the forepaws followed by hindpaws on the balance beam. Mice were left on the beam until they fell onto a soft cushion 75 cm below or until 5 min elapsed. The longest time of each pair of trials was used for statistical analysis.

Water solubility = type: physicochemical
mice = details: cited from earlier work

Structure (SMILES): C[C@H](Cc1ccc(O)c(O)c1)[C@@H](C)Cc1ccc(O)c(O)c1 [NDGA, 1,4-bis (3,4-Dihydroxyphenyl)-2,3-dimethylbutane]
- NO2− suppression at 800 nM ([1]; 800 nM): Significant NO2^− suppression
- IC50 ([1]; Mus musculus, read-out: IC50): 3 to 5 µM
- potency relative to minocycline ([1]; fold more potent than minocycline): approximately 16 times
- toxicity at 100 μM (EOC-20 cells): no toxicity
- median lifespan after start of treatment (G93A-SOD1 mice [2]; 10 mg/kg i.p. 5 days/week from 90 D): 37 D
- extension of lifespan after the start of treatment (G93A-SOD1 mice [2]; 10 mg/kg i.p. from 90 D): 20%
- median lifespan (G93A-SOD1 mice [2]; 10 mg/kg i.p. from 90 D): 127 D
- reduction in rate of motor functional decline relative to vehicle (G93A-SOD1 mice [2]; 10 mg/kg i.p. from 90 D, linear regression 100-120D): 38%
- slope of motor functional decline (G93A-SOD1 mice [2]; 10 mg/kg i.p., 100-120D): 2.96 % decrease/day
- rotarod performance (G93A-SOD1 mice [2]; i.p. administration): not significantly affected
- RR (survival, logrank analysis) (G93A-SOD1 mice [3]; 2500 ppm in chow from 90 D): 0.27
- median age of death (G93A-SOD1 mice [3]; 2500 ppm in chow from 90 D): 140 D
- pathological effects at necropsy (G93A-SOD1 mice [3]; mouse, in vivo): no pathological effects of the drug were observed
- weight changes (G93A-SOD1 mice [3]; mouse, in vivo): No weight changes were observed
- extension of paralytic phase (onset of paralysis to death) (G93A-SOD1 mice [3]; oral): approximately 40%
- rotarod performance (G93A-SOD1 mice [3]; oral): significantly improved rotarod performance
- Onset of frank paralysis, mean ± SD (G93A-SOD1 mice [3]; oral NDGA): 121 ± 7.1 D
- Onset of frank paralysis, median (G93A-SOD1 mice [3]; oral NDGA): 120 D
- Time between onset and death, mean ± SD (G93A-SOD1 mice [3]; oral NDGA): 16.5 ± 7.9 D
- Time between onset and death, median (G93A-SOD1 mice [3]; oral NDGA): 14 D
- extension of median lifespan (G93A-SOD1 mice [3]; oral, from 90 D): 13 D
- prolongation of lifespan after start of treatment (G93A-SOD1 mice [3]; oral, from 90 D): 32%
- balance test (C57/B6 mice): significantly improved functional ability
- rotarod test (C57/B6 mice): significantly improved functional ability
- water solubility (Water solubility): limited water solubility
- effects of long-term feeding (mice; 0.5% of the diet, long-term, mice): no ill effects
- LD50 (mice; mouse, in vivo, ip): greater than 500 mg/kg
